Drawing on BindingDB's records for doi:10.1016/S0960-894X(01)80901-X (1993), this text covers Ki for one compound.

In the assay the target is Neuromedin-K/NK2 receptor (tachykinin receptor 2), Rattus norvegicus. Nature of the assay: Tested in vitro to inhibit the binding of [125I]NKA to its receptor in rat duodenum membrane.

As a reminder, the Ki is the dissociation constant of the complex between target and ligand, obtained from inhibition or displacement. A low value points to higher affinity. In the case of `CC(=O)NC1(c2ccccc2)CCN(CC[C@H](CN(C)C(=O)c2ccccc2)c2ccc(Cl)c(Cl)c2)CC1` [N-[(R)-4-(4-Acetylamino-4-phenyl-piperidin-1-yl)-2-(3,4-dichloro-phenyl)-butyl]-N-methyl-benzamide], the affinity, expressed as Ki, was 0.51 nM.
